Patent publication US8975259B2, “Compositions and methods for inhibiting G protein signaling” (University of Rochester, priority 2007, dated 2015)
pIC50: −log10 of the molar value.

Columns and labels:
PLCβ3 = assay: Gβ1γ2-dependent activation of purified PLCβ3; format: biochemical; details: for effect on Gβ1γ2-dependent activation of PLCβ3: result in words
Protocol: Purified PLCβ2 (0.25 ng) was assayed in the presence (▴) or absence (▪) of 100 nM purified Gβ1γ2. […] Assays contained 10 ng of purified p101/p110 PI3Kγ heterodimer with or without 100 nM purified Gβ1γ2. Left panel: (▴) 100 nM Gβ1γ2 or (▪) no βγ. […] M119 or M201 and 25 nM purified GRK2 were added simultaneously to 250 nM biotinylated Gβ1γ2 (bGβ1γ2) immobilized on streptavidin agarose. GRK2 was detected with antibody to GRK2. Data are representative (mean ±SEM, except D) repeated at least three times each. […] 30 nM bGβ1γ2 was incubated with either 30 nM PLCβ2 or PLCβ3 in the presence or absence of M119 or M201 for 16 h at 4° C. before precipitation with avidin agarose and detection with PLCβ2,or Gβ antibodies. […] Same as 4E with PLCβ3.
The ability of NSC119910 analogs to selectively modulate activation PLC-β2 and -β3 was analyzed. In this assay, PLC-β2 and PLC-β3 were purified and PLC enzymatic activity was measured in the presence or absence of purified βy and in the presence or absence of analog.
Nevertheless, M119 and M201 were tested in in vitro reconstitution assays of Gβγ-dependent activation of PLCβ2, PLCβ3 and PI3Kγ and binding to GRK2. […] These are only two of multiple diverse compounds identified, indicating potential for multiple modes of Gβγ-dependent target modulation by these small molecules.

[1] = tested on: primary human neutrophils; assay: IL-8-induced chemotaxis of primary human neutrophils (Boyden chamber); format: cell-based; details: 10 μM compound, 10 nM IL-8; result in words
Protocol: Differentiated HL60 cells (200 k) were pretreated with 10 μM concentrations of the indicated compound, challenged with 250 nM fMLP, and assayed for chemotaxis in a Boyden chamber for 1 h at 37° C. […] Chemotaxis was quantified as above by subtracting out background cells (0-10 cells) in the absence of chemoattractant to obtain total transmigrated cells (−100 cells GM-CSF+vehicle) and represented as the percentage of GM-CSF-treated control cells. No statistically significant difference from control was seen by ANOVA. […] Primary human neutrophils were isolated from whole blood to ≧80% purity. […] Chemotaxis was quantified as above by subtracting out background cells to obtain total transmigrated cells and represented as the percentage of fMLP-treated control cells. […]
Chemotaxis was assayed using a Boyden chamber (Neuro Probe, Gaithersburg, Md.) using 3-μm polyvinylpyrrolidone-free polycarbonate filters (Neuro Probe). […] Chemotactic HL60 cells were scored by counting three microscope fields and subtracting the number of cells from fMLP wells as background. […] For all the small molecules, effects of the compounds on chemokinesis was analyzed by measuring chemotaxis in the presence of 250 nM fMLP in both the upper and lower chambers of the Boyden Chamber and measuring changes in transwell migration. […]

[2] = Toxicity on repeated daily dosing in animals; format: in vivo
[3] = tested on: differentiated HL60 cells; assay: Chemokinesis (fMLP in upper and lower Boyden chambers); format: cell-based, human; details: fMLP in both chambers; result in words
Protocol: Same as A with purified human neutrophils.
Chemotaxis was assayed using a Boyden chamber (Neuro Probe, Gaithersburg, Md.) using 3-μm polyvinylpyrrolidone-free polycarbonate filters (Neuro Probe). HL60 cells (differentiated for 4 days) were washed with and resuspended in HBSS containing 1% bovine serum albumin to a final concentration of 1×10^6 cells/ml. Primary human neutrophils were washed and resuspended in NaCl buffer (140 mM NaCl, 4 mM KCl, 10 mM D-glucose, 10 mM HEPES, pH 7.4, 1 mM MgCl2, and 1 mM CaCl2) to a final concentration of 1×10^6 cells/mi. Chemoattractant [1 μM granulocyte-macrophage-colony stimulating factor (GM-CSF), 10 nM IL-8, or 250 nM fMLP; Sigma Aldrich] was added to the bottom chamber in HBSS containing 1% bovine serum albumin. Cell suspensions (0.2×10^6 cells/well) were added to the top wells of the Boyden chamber and allowed to migrate for 1 h at 37° C. […] Chemotactic HL60 cells were scored by counting three microscope fields and subtracting the number of cells from fMLP wells as background. […] For all the small molecules, effects of the compounds on chemokinesis was analyzed by measuring chemotaxis in the presence of 250 nM fMLP in both the upper and lower chambers of the Boyden Chamber and measuring changes in transwell migration. […]

Compound	pIC50 (PLCβ3; Table 19, effector IC50, read-out: PLCb3)	effect on Gβ1γ2-dependent activation of PLCβ3 (PLCβ3)	effect on IL-8 regulated chemotaxis [1]	toxicity ([2]; 100 mg/kg/day intraperitoneal, one week)	effect on chemokinesis [3]	toxicity in intact animals and histology of lung, liver, brain, heart and kidney ([2]; 10, 30 and 100 mg/kg/day daily injections, two weeks)
O=C(O)C1CCCCC1c1c2ccc(=O)c(O)c-2oc2c(O)c(O)ccc12 (stereo not drawn) [Compound M119, cyclohexanecarboxylic acid, 2-(4,5,6-trihydroxy-3-oxo-3H-xanthen-9-yl)-(9cl)]	5.52	attenuated	blocked	no overt toxicity was observed	Neither M119 nor gallein had any effects	
O=C(O)c1ccccc1-c1c2ccc(=O)c(O)c-2oc2c(O)c(O)ccc12 (racemic) [Gallein]			blocked		Neither M119 nor gallein had any effects	nor any overt toxicity
O=C(O)C1CCCCC1c1c2ccc(=O)cc-2oc2cc(O)ccc12 (stereo not drawn) [Compound M119B]		did not have effects				
